Results as given in the NIST ThermoML archive (doi:10.1021/je101361u).
Numbers after ± are expanded uncertainties.

Assay: xn = mol fraction of the nth substance listed
Details: 101.3 kPa, Liquid, Vibrating tube method

CCOCCOCCOCC [diethylene glycol diethyl ether] + ClCCCl
mass density [kg/m3]
Details | 283.15 K | 288.15 K | 293.15 K | 298.15 K | 303.15 K | 308.15 K
x2 = 0.0234 | 920.54 ± 0.72 | 915.7 ± 0.72 | 910.83 ± 0.71 | 905.98 ± 0.71 | 901.12 ± 0.7 | 896.25 ± 0.7
x2 = 0.0504 | 925.19 ± 0.7 | 920.3 ± 0.69 | 915.41 ± 0.69 | 910.52 ± 0.68 | 905.62 ± 0.68 | 900.73 ± 0.67
x2 = 0.0751 | 929.56 ± 0.67 | 924.64 ± 0.67 | 919.72 ± 0.66 | 914.8 ± 0.66 | 909.87 ± 0.65 | 904.95 ± 0.65
x2 = 0.1009 | 934.31 ± 0.65 | 929.36 ± 0.64 | 924.39 ± 0.64 | 919.44 ± 0.63 | 914.47 ± 0.63 | 909.51 ± 0.63
x2 = 0.1504 | 943.66 ± 0.6 | 938.64 ± 0.6 | 933.61 ± 0.59 | 928.58 ± 0.59 | 923.55 ± 0.58 | 918.52 ± 0.58
x2 = 0.2 | 953.71 ± 0.55 | 948.62 ± 0.55 | 943.52 ± 0.55 | 938.42 ± 0.54 | 933.31 ± 0.54 | 928.2 ± 0.54
x2 = 0.2546 | 965.43 ± 0.51 | 960.24 ± 0.5 | 955.05 ± 0.5 | 949.86 ± 0.5 | 944.67 ± 0.49 | 939.47 ± 0.49
x2 = 0.2999 | 975.65 ± 0.47 | 970.39 ± 0.46 | 965.13 ± 0.46 | 959.86 ± 0.46 | 954.59 ± 0.46 | 949.32 ± 0.46
x2 = 0.35 | 987.75 ± 0.43 | 982.41 ± 0.43 | 977.05 ± 0.42 | 971.69 ± 0.42 | 966.34 ± 0.42 | 960.97 ± 0.42
x2 = 0.4006 | 1000.78 ± 0.39 | 995.34 ± 0.39 | 989.89 ± 0.39 | 984.44 ± 0.39 | 978.99 ± 0.38 | 973.53 ± 0.38
x2 = 0.4502 | 1014.42 ± 0.37 | 1008.87 ± 0.36 | 1003.32 ± 0.36 | 997.77 ± 0.35 | 992.22 ± 0.35 | 986.66 ± 0.35
x2 = 0.5002 | 1029.16 ± 0.35 | 1023.52 ± 0.34 | 1017.86 ± 0.34 | 1012.21 ± 0.33 | 1006.55 ± 0.33 | –
x2 = 0.5499 | 1044.87 ± 0.33 | 1039.11 ± 0.33 | 1033.35 ± 0.32 | 1027.58 ± 0.32 | 1021.8 ± 0.32 | –
x2 = 0.6 | 1061.87 ± 0.32 | 1056 ± 0.32 | 1050.12 ± 0.32 | 1044.23 ± 0.31 | 1038.33 ± 0.31 | –
x2 = 0.65 | 1080.19 ± 0.32 | 1074.19 ± 0.32 | 1068.18 ± 0.31 | 1062.16 ± 0.31 | 1056.14 ± 0.3 | –
x2 = 0.6999 | 1100.05 ± 0.32 | 1093.92 ± 0.32 | 1087.77 ± 0.31 | 1081.63 ± 0.31 | 1075.47 ± 0.3 | –
x2 = 0.7492 | 1121.14 ± 0.33 | 1114.87 ± 0.32 | 1108.58 ± 0.32 | 1102.29 ± 0.32 | 1095.99 ± 0.31 | –
x2 = 0.8 | 1145.22 ± 0.34 | 1138.79 ± 0.34 | 1132.34 ± 0.34 | 1125.89 ± 0.33 | 1119.42 ± 0.33 | –
x2 = 0.85 | 1171.12 ± 0.36 | 1164.52 ± 0.36 | 1157.9 ± 0.36 | 1151.27 ± 0.35 | 1144.62 ± 0.35 | –
x2 = 0.9 | 1199.76 ± 0.39 | 1192.98 ± 0.39 | 1186.17 ± 0.39 | 1179.35 ± 0.38 | 1172.51 ± 0.38 | –
x2 = 0.95 | 1231.56 ± 0.42 | 1224.58 ± 0.41 | 1217.56 ± 0.41 | 1210.52 ± 0.41 | 1203.45 ± 0.4 | –
x2 = 0.975 | 1248.9 ± 0.44 | 1241.8 ± 0.44 | 1234.66 ± 0.43 | 1227.5 ± 0.43 | 1220.32 ± 0.43 | –
